Experimental data reported in ChEMBL document CHEMBL1201862, “PubChem BioAssay data set” (2004).
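Grown in 96-well plates, cells were treated for 48 hours with each compound at five concentrations. Insufficient inhibition: endpoint recorded as highest concentration tested. Abbreviation: GI50, concentration required for 50% inhibition of growth.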 The source made the active and inactive calls. Cut-off read from the data, not from the text of the source: active = GI50 up to about 1.1 µM and inactive = higher.

Legend:
Test in all cases: NCI-60 cell line screen, 48 h
HT-29 = test system: HT-29
HCT-15 = test system: HCT-15
Hs-578T = test system: Hs-578T
HCC 2998 = test system: HCC 2998
MDA-MB-435 = test system: MDA-MB-435
K562 = test system: K562
SK-MEL-5 = test system: SK-MEL-5
SK-MEL-2 = test system: SK-MEL-2
HOP-62 = test system: HOP-62
SF-268 = test system: SF-268
NCI-H522 = test system: NCI-H522
COLO 205 = test system: COLO 205
A498 = test system: A498
HCT-116 = test system: HCT-116
HOP-92 = test system: HOP-92
TK-10 = test system: TK-10
NCI/ADR-RES = test system: NCI/ADR-RES
OVCAR-4 = test system: OVCAR-4
MDA-MB-231 = test system: MDA-MB-231
SF-295 = test system: SF-295
SF-539 = test system: SF-539
BT-549 = test system: BT-549
EKVX = test system: EKVX
OVCAR-3 = test system: OVCAR-3
SK-MEL-28 = test system: SK-MEL-28
M14 = test system: M14
UO-31 = test system: UO-31
CCRF-CEM = test system: CCRF-CEM
MOLT-4 = test system: MOLT-4
LOX IMVI = test system: LOX IMVI
DU-145 = test system: DU-145
SR = test system: SR
SNB-75 = test system: SNB-75
SK-OV-3 = test system: SK-OV-3
A549 = test system: A549
KM12 = test system: KM12
HL-60 = test system: HL-60
NCI-H226 = test system: NCI-H226
MDA-N = test system: MDA-N
U-251 = test system: U-251
SNB-19 = test system: SNB-19
OVCAR-5 = test system: OVCAR-5
UACC-62 = test system: UACC-62
MCF7 = test system: MCF7
786-0 = test system: 786-0
RXF 393 = test system: RXF 393
ACHN = test system: ACHN
RPMI-8226 = test system: RPMI-8226
PC-3 = test system: PC-3
CAKI-1 = test system: CAKI-1
SW-620 = test system: SW-620
OVCAR-8 = test system: OVCAR-8
T47D = test system: T47D
NCI-H23 = test system: NCI-H23
NCI-H460 = test system: NCI-H460
SN12C = test system: SN12C
Malme-3M = test system: Malme-3M
IGROV-1 = test system: IGROV-1
UACC-257 = test system: UACC-257

Compound: CC(=O)OC(Cc1ccc2ccccc2n1)(C(F)(F)F)C(F)(F)F
- GI50 (HT-29): 1.27 µM (inactive)
- GI50 (HCT-15): 1.97 µM
- GI50 (Hs-578T): 1.35 µM (inactive)
- GI50 (HCC 2998): 0.851 µM (active)
- GI50 (MDA-MB-435): 1.21 µM (inactive)
- GI50 (K562): 0.594 µM (active)
- GI50 (SK-MEL-5): 0.253 µM (active)
- GI50 (SK-MEL-2): 1.36 µM (inactive)
- GI50 (HOP-62): 10.4 µM (inactive)
- GI50 (SF-268): 2.17 µM (inactive)
- GI50 (NCI-H522): 0.519 µM (active)
- GI50 (COLO 205): 0.217 µM (active)
- GI50 (A498): 1.95 µM (inactive)
- GI50 (HCT-116): 1.31 µM (inactive)
- GI50 (HOP-92): 0.142 µM (active)
- GI50 (TK-10): 0.33 µM (active)
- GI50 (NCI/ADR-RES): 1.72 µM (inactive)
- GI50 (OVCAR-4): 2.45 µM (inactive)
- GI50 (MDA-MB-231): 1.28 µM (inactive)
- GI50 (SF-295): 4.5 µM (inactive)
- GI50 (SF-539): 2.32 µM (inactive)
- GI50 (BT-549): 1.6 µM (inactive)
- GI50 (EKVX): 4.62 µM (inactive)
- GI50 (OVCAR-3): 0.676 µM (active)
- GI50 (SK-MEL-28): 1.42 µM (inactive)
- GI50 (M14): 1.23 µM (inactive)
- GI50 (UO-31): 2.22 µM (inactive)
- GI50 (CCRF-CEM): 0.0728 µM (active)
- GI50 (MOLT-4): 0.0796 µM (active)
- GI50 (LOX IMVI): 0.267 µM (active)
- GI50 (DU-145): 3.31 µM (inactive)
- GI50 (SR): 0.11 µM (active)
- GI50 (SNB-75): 4.36 µM (inactive)
- GI50 (SK-OV-3): 14.3 µM (inactive)
- GI50 (A549): 9.53 µM (inactive)
- GI50 (KM12): 4.7 µM (inactive)
- GI50 (HL-60): 0.0205 µM (active)
- GI50 (NCI-H226): 1.76 µM (inactive)
- GI50 (MDA-N): 1.17 µM (inactive)
- GI50 (U-251): 5.74 µM (inactive)
- GI50 (SNB-19): 3.76 µM (inactive)
- GI50 (OVCAR-5): 2.89 µM (inactive)
- GI50 (UACC-62): 1.32 µM (inactive)
- GI50 (MCF7): 0.063 µM (active)
- GI50 (786-0): 1.52 µM (inactive)
- GI50 (RXF 393): 0.675 µM (active)
- GI50 (ACHN): 3.78 µM (inactive)
- GI50 (RPMI-8226): 0.0272 µM (active)
- GI50 (PC-3): 2.09 µM (inactive)
- GI50 (CAKI-1): 0.802 µM (active)
- GI50 (SW-620): 0.426 µM (active)
- GI50 (OVCAR-8): 1.69 µM (inactive)
- GI50 (T47D): 0.181 µM (active)
- GI50 (NCI-H23): 1.58 µM (inactive)
- GI50 (NCI-H460): 6 µM (inactive)
- GI50 (SN12C): 1.27 µM (inactive)
- GI50 (Malme-3M): 0.849 µM (active)
- GI50 (IGROV-1): 1.31 µM (inactive)

Compound: CCc1nc(N)nc(N)c1-c1ccc(NCCN)c([N+](=O)[O-])c1
- GI50 (HT-29): 6.11 µM (inactive)
- GI50 (HCT-15): 37 µM
- GI50 (Hs-578T): 89.1 µM (inactive)
- GI50 (HCC 2998): 10.4 µM (inactive)
- GI50 (MDA-MB-435): 7.13 µM (inactive)
- GI50 (K562): 1.09 µM (active)
- GI50 (SK-MEL-5): 9.79 µM (inactive)
- GI50 (SK-MEL-2): 46.7 µM (inactive)
- GI50 (HOP-62): 18.2 µM (inactive)
- GI50 (SF-268): 7.1 µM (inactive)
- GI50 (NCI-H522): 13.7 µM (inactive)
- GI50 (COLO 205): 14.2 µM (inactive)
- GI50 (A498): 17.7 µM (inactive)
- GI50 (HCT-116): 2.52 µM (inactive)
- GI50 (HOP-92): 27.6 µM (inactive)
- GI50 (TK-10): > 88.7 µM (inactive)
- GI50 (NCI/ADR-RES): > 100 µM (inactive)
- GI50 (OVCAR-4): 20.7 µM (inactive)
- GI50 (MDA-MB-231): 20.2 µM (inactive)
- GI50 (SF-295): 11.3 µM (inactive)
- GI50 (SF-539): 11.6 µM (inactive)
- GI50 (BT-549): 36.1 µM (inactive)
- GI50 (EKVX): 29 µM (inactive)
- GI50 (OVCAR-3): 21.8 µM (inactive)
- GI50 (SK-MEL-28): > 59.3 µM (inactive)
- GI50 (M14): 8.63 µM (inactive)
- GI50 (UO-31): > 100 µM (inactive)
- GI50 (CCRF-CEM): 4.41 µM (inactive)
- GI50 (MOLT-4): 7.16 µM (inactive)
- GI50 (LOX IMVI): 4.24 µM (inactive)
- GI50 (DU-145): 20.5 µM (inactive)
- GI50 (SR): 4 µM (inactive)
- GI50 (SNB-75): 19.7 µM (inactive)
- GI50 (SK-OV-3): 82.8 µM (inactive)
- GI50 (UACC-257): 14.3 µM (inactive)
- GI50 (A549): 4.19 µM (inactive)
- GI50 (KM12): 17.7 µM (inactive)
- GI50 (HL-60): 3.99 µM (inactive)
- GI50 (NCI-H226): > 96.8 µM (inactive)
- GI50 (MDA-N): 6.92 µM (inactive)
- GI50 (U-251): 9.08 µM (inactive)
- GI50 (SNB-19): 24.7 µM (inactive)
- GI50 (OVCAR-5): 33.9 µM (inactive)
- GI50 (UACC-62): 6.3 µM (inactive)
- GI50 (MCF7): 10.2 µM (inactive)
- GI50 (786-0): 7.03 µM (inactive)
- GI50 (RXF 393): 39 µM (inactive)
- GI50 (ACHN): 34.9 µM (inactive)
- GI50 (RPMI-8226): 29.6 µM (inactive)
- GI50 (PC-3): 6.53 µM (inactive)
- GI50 (CAKI-1): 53.1 µM (inactive)
- GI50 (SW-620): 5 µM (inactive)
- GI50 (OVCAR-8): 7.67 µM (inactive)
- GI50 (T47D): 33.6 µM (inactive)
- GI50 (NCI-H23): 7.4 µM (inactive)
- GI50 (NCI-H460): 2.75 µM (inactive)
- GI50 (SN12C): 12.1 µM (inactive)
- GI50 (Malme-3M): 13.7 µM (inactive)
- GI50 (IGROV-1): 8.97 µM (inactive)
